We go through 1 compound from ChEMBL document CHEMBL5321215, “Discovery of quinazolin-4(3H)-one derivatives as novel AChE inhibitors with anti-inflammatory activities” (Eur J Med Chem, 2023).

Structures are written as SMILES.

One test has as its target Acetylcholinesterase (Homo sapiens, UniProt P22303). The experiment in a line: Inhibition of AChE (unknown origin).
In a further test the target is Cholinesterase (Homo sapiens, UniProt P06276). Nature of the test: Inhibition of BChE (unknown origin).
Sequence of Cholinesterase (P06276 whole entry): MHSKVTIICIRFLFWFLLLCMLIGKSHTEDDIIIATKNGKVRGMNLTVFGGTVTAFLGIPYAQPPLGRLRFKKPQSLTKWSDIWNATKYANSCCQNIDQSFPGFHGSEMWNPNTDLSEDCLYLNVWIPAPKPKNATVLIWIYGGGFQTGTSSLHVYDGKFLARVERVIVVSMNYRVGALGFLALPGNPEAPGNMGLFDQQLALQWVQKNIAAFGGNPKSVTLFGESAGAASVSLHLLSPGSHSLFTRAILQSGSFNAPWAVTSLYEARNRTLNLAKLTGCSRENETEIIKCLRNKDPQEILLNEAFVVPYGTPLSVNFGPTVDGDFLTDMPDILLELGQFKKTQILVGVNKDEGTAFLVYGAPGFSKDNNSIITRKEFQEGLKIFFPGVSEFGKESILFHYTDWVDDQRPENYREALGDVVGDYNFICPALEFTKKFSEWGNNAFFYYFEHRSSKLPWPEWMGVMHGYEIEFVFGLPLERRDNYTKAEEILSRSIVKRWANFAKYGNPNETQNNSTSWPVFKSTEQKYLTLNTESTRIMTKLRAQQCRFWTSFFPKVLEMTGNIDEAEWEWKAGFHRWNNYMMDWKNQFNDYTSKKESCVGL

Sequence of Acetylcholinesterase (P22303 whole entry): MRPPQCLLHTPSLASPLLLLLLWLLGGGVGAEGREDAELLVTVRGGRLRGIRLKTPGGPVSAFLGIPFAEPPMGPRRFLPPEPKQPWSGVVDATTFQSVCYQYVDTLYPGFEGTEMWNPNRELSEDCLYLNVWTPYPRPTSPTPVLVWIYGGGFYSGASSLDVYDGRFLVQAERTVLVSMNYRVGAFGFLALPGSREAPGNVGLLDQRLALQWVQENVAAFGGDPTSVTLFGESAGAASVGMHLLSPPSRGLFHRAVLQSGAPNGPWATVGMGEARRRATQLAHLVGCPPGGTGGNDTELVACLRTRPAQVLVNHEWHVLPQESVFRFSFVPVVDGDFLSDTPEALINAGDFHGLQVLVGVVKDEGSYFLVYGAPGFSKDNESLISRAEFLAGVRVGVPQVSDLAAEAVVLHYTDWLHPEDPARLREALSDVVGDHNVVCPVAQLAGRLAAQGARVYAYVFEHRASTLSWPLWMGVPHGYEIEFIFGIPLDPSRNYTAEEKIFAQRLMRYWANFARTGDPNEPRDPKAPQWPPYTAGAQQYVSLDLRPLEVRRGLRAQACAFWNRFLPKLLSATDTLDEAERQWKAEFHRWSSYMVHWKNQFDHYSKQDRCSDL

As to `CON(C)C(=O)Oc1ccccc1C(=O)NCCc1c[nH]c2ccccc12`, the half-maximal inhibitory concentration (IC50) (commonly the point on the concentration scale where inhibition reaches its midpoint) turned out to be 3240 nM against Acetylcholinesterase and 1840 nM against Cholinesterase.
